# Results taken from patent publication US4774230A, “Glucuronic acid derivatives of opioid antagonists” (Ivax Laboratories, Inc., priority 1988, dated 1988).
# Counter-ions that a name gives are not always drawn.
# Tests used:
# [1] = test system: intestinal transit; assay: charcoal meal assay (gastrointestinal motility), alleviation of morphine-induced hypomotility; format: in vivo, mice; conditions: for effect on intestinal transit in the absence of morphine: no morphine, groups 4 and 6; for protection of the intestine against the depressant effect of morphine / percentage of intestine traveled compared with group 1 (no morphine): with morphine; for protection of the intestine against the depressant effect of morphine: groups 5 and 7; for percentage of intestine traveled compared with group 1 (no morphine): groups 5 and 7 vs group 1
# Description: Summary of the Results of the Charcoal Meal Assay^a
# (Gastrointestial Motility) in Mice Given Nalmefene HCl
# and Nalmefene-β-D-Glucuronide
# ^b The first vehicle or drug listed under Treatment was given 30
# minutes before the second vehicle or drug listed. The results were
# determined 30 min later. All treatments are p.o. and given in a volume of
# 0.3 ml. Doses were 10 mg/kg for morphine, 15 mg/kg or 2.9 ×
# [2] = test system: opioid-dependant animals (central nervous system); assay: Rapid Quantitative In Vivo Assay for Narcotic Antagonist (skin tail temperature rise, CNS withdrawal sign); conditions: FIG. 2; injection of 1000 μg/kg
# Excerpt: The Rapid Quantitative In Vivo Assay for Narcotic Antagonist of Katovich et al. (Substance and Alcohol Actions/Misuse, vol 5: 87095, 1984) was used. This assay is based on the extreme sensitivity of opioid-dependant animals to narcotic antagonists. Injection of these animals with a narcotic antagonist produces severe central nervous system withdrawal signs. One of these signs is an abrupt rise in the skin temperature of the tail.
# [3] = absorption and distribution of ^14 C labelled nalmefene glucuronide after oral administration; format: in vivo, rats
# Excerpt: Therefore the glucuronide of an opioid antagonist provides a means of preventing narcotic-induced intestinal hypomotility without interfering with central nervous system effects of narcotics, such as analgesia.
# [4] = analysis of blood, urine and feces after oral nalmefene (free nalmefene versus nalmefene glucuronide); format: in vivo, rats; conditions: oral administration
# Excerpt: Such a high degree of biotransformation is common for this type of drug.
# [5] = test system: constipation; conditions: patients not exposed to an exogenous opioid; Kreek et al., Lancet 1983; cited from earlier work
smiles,measurement,setting,value
CN1CC[C@]23c4c5ccc(O)c4O[C@H]2[C@@H](O)C=C[C@H]3[C@H]1C5 [Morphine],Percent Meal Traveled ± S.E.M.,"[1]; Group 2: Saline + Morphine, morphine 10 mg/kg p.o. given 30 min after saline, N = 8, significantly different (p < 0.05) from Saline + Saline controls",28 ± 2%
same,Percent Meal Traveled ± S.E.M.,"[1]; Group 3: Morphine + Saline, morphine 10 mg/kg p.o. given 30 min before saline, N = 8, p < 0.05 vs Saline + Saline, no difference vs Saline + Morphine",31 ± 3%
same,reduction of the percentage of the intestine traveled,"[1]; morphine, groups 2 and 3",reduced the percentage of the intestine traveled by more than half
C=C1CC[C@@]2(O)[C@H]3Cc4ccc(O)c5c4[C@@]2(CCN3CC2CC2)[C@H]1O5 [Nalmefene HCl],Percent Meal Traveled ± S.E.M.,"[1]; Group 6: Saline + Nalmefene HCl, 2.9 × 10^-6 M/kg p.o., N = 8",63 ± 2%
same,Percent Meal Traveled ± S.E.M.,"[1]; Group 7: Morphine (10 mg/kg p.o., 30 min before) + Nalmefene HCl 2.9 × 10^-6 M/kg p.o., N = 5, no difference vs Saline + Saline, p < 0.05 vs Morphine + Saline",66 ± 14%
"C=C1CC[C@@]2(O)[C@H]3Cc4ccc(O[C@@H]5O[C@H](C(=O)O)[C@@H](O)[C@H](O)[C@H]5O)c5c4[C@@]2(CCN3CC2CC2)[C@H]1O5 [nalmefene glucuronide, nalmefene-3β-D-glucuronide]",Percent Meal Traveled ± S.E.M.,"[1]; Group 4: Saline + Nalmefene Glucuronide, 15 mg/kg or 2.9 × 10^-6 M/kg p.o., N = 8, no significant difference vs Saline + Saline",66 ± 3%
same,Percent Meal Traveled ± S.E.M.,"[1]; Group 5: Morphine (10 mg/kg p.o., 30 min before) + Nalmefene Glucuronide 15 mg/kg or 2.9 × 10^-6 M/kg p.o., N = 5, no difference vs Saline + Saline, p < 0.05 vs Morphine + Saline",58 ± 12%
same,effect on intestinal transit in the absence of morphine,[1],neither nalmefene (group 6) nor nalmefene glucuronide (group 4) had any significant effect
same,effectiveness against morphine-induced intestinal hypomotility compared with nalmefene,[1]; vs nalmefene,as effective as nalmefene
same,protection of the intestine against the depressant effect of morphine,[1],protected the intestine against the depressant effect of morphine
same,percentage of intestine traveled compared with group 1 (no morphine),[1],not significantly less than in the group (group 1) where no morphine was present
same,effect on skin tail temperature,[2],no effect
same,form of the drug in the cecum,[3]; 2 hours after oral dosing,almost exclusively free nalmefene
same,part of the dose present in the small intestine still as nalmefene glucuronide,[3]; 2 hours after oral dosing,about 85%
same,part of the dose which had reached the cecum,[3]; 2 hours after oral dosing,2-3%
same,radioactivity in plasma,[3]; 2 hours after oral dosing,No radioactivity could be detected in plasma
same,absorption following oral administration,"[3]; ^14 C label, oral doses as high as 40 mg/kg",not absorbed to any measurable extent
"C=C1CC[C@@]2(O)[C@H]3Cc4ccc(O)c5c4[C@@]2(CCN3CC2CC2)[C@H]1O5 [nalmefene, 6-methylene-6-desoxy-N-cyclopropylmethyl-14-hydroxydihydronormorphine]",effect on intestinal transit in the absence of morphine,[1],neither nalmefene (group 6) nor nalmefene glucuronide (group 4) had any significant effect
same,protection of the intestine against the depressant effect of morphine,[1],protected the intestine against the depressant effect of morphine
same,percentage of intestine traveled compared with group 1 (no morphine),[1],not significantly less than in the group (group 1) where no morphine was present
same,"biotransformation by ""first-pass"" metabolism",[4],almost totally biotransformed
C=CCN1CC[C@]23c4c5ccc(O)c4O[C@H]2C(=O)CC[C@@]3(O)[C@H]1C5 [naloxone],relief of constipation,[5],relieves constipation
